This is an account of results in patent US8624032B2, “Compound libraries made through phosphine-catalyzed annulation/Tebbe/Diels-Alder reactions” (The Regents of the University of California, priority 2011, dated 2014).

The subject of data set [1] is MDA-MB-231 human breast cancer cells. Nature of the data set: wound closure assay (cell migration). It counts as cell-based. The note with it: for effect on wound closure or cytotoxicity in the screen: 24 hours after wounding.
Experimental: In the wound closure assay, MDA-MB-231 cells (American Type Culture Collection number: HTB-26) were cultured in 75 cm^2 tissue culture flasks with growth medium (DMEM containing 10% fetal bovine serum) at 37° C. under 5% CO2 in a humidified tissue culture incubator. The cells were grown to 80% confluence and then treated with trypsin, collected, and replated in 96-well tissue culture plates for initial screening. Once confluent, the cell cultures were treated with compounds at various concentrations or with DMSO carrier solvent alone with fresh growth medium. In all cases, the final DMSO concentration was 0.05%. After 30 minutes, the cell cultures were wounded with a sterile micropipette tip, and the wound closure experiments were performed essentially as described previously.
Cell monolayers in 24-well tissue culture plates were treated with different concentrations of each compound 30 minutes before wounding and then wounded, as described above.
Digital images of the wounds were captured immediately after wounding and at 3 h, 6 h, 9 h, 12 h, and 24 hours post-wounding. The open wound areas, as a function of time after wounding, were determined with NIH Image J software to establish the mean percent wound closure over time for each treatment and parallel controls, as previously described. The mean percent wound closure values at 9 hours post-wounding for all concentrations up to the maximal subtoxic concentration were subjected to nonlinear regression to calculate IC50 values and 95% confidence intervals for inhibition of wound closure.
The Minimum Inhibitory Concentration (MIC) column of Table 1 represents the lowest concentration tested at which there was statistically significant inhibitory activity in the wound closure assay as determined by unpaired, two-tailed Student's t-tests (P<0.05).
Half-maximal inhibitory concentration (IC50) values shown in Table 1 were calculated for inhibition of wound closure at 9 hours post-wounding from concentration—response profiles for a range of subtoxic concentrations (n=7−9 wounds from three independent experiments).
For data set [2], the system named is MDA-MB-231 cells. Briefly: tetrazolium salt-based cell proliferation and viability assay (CCK-8). Set-up: species or system human. As to conditions: 48 hours. How it is done: Compounds 90, 92 and 94 were also evaluated in a tetrazolium salt-based cell proliferation and viability assay.
The cell proliferation and cell viability assay was conducted according to the manufacturer's instructions (CCK-8; Dojindo Molecular Technologies). MDA-MB-231 cells were plated in 96-well tissue culture plates ([…] per well of a 4×10^4 cells per mL suspension in growth medium) and incubated for 24 hours at 37° C. under 5% CO2. The cells were then treated with the tested compounds at various concentrations or with DMSO alone. In all cases, the final DMSO concentration was 0.05%. At the same time, other cells from parallel plates were analyzed using the CCK-8 assay to establish the cell density at the start of the experiment. After 48 hours of incubation, the cell numbers for the experimental samples were determined and compared with the initial cell numbers.

The test system of data set [3] is MDA-MB-231 cells. Briefly: cell invasion assay through Matrigel in transwell chambers. As to conditions: subtoxic concentrations, 24 hours. In kind it is cell-based, human. Here is the method: Cell migration is a necessary condition for the metastasis of solid tumors. A major determinant of the metastatic potential of a cancer cell is its ability to invade through extracellular matrix barriers. Therefore, compounds 90, 92 and 94 were tested for their activities using a cell invasion assay.
Compounds 90, 92, and 94 were analyzed for their ability to inhibit the invasion of cells through Matrigel in a cell invasion assay. The assay was performed in transwell chambers according to the manufacturer's instructions (BD Biosciences). The polycarbonate membranes (8 μm pore size) of the upper chambers were coated with Matrigel (25 μg). Growth medium containing the tested compound or DMSO alone was added to the lower chambers ([…] per well in 24-well BD Falcon TC companion plates). […] After removing noninvaded cells from the upper surface of the membrane with a cotton swab, the invaded cells on the lower surface were fixed with MeOH, stained with crystal violet solution, rinsed with water, air-dried, and then counted by using an inverted microscope. In parallel experiments, cell viability, determined using the trypan blue dye exclusion assay at various concentrations of the tested compounds, was evaluated under the conditions of the cell invasion assay.

The test system of data set [4] is MDA-MB-231 human breast cancer cells. Briefly: trypan blue dye exclusion assay at the end of wound closure experiments. It counts as cell-based. As to conditions: lowest concentration tested with statistically significant cell death by the end of wound closure experiments. How it is done:
Compounds were first screened at 50 μm and evaluated for their antimigratory activity and cytotoxicity. This was accomplished by scoring wounds as opened or closed as a function of time following wounding to determine the time to closure. Cell viability was determined by the trypan blue dye exclusion assay conducted at the end of each experiment, with the ratio of dye-non-excluding (dead) to dye-excluding (live) cells compared with the control, described in greater detail in Example 7.
Minimum lethal concentration (MLC) represents the lowest concentration tested at which there was statistically significant cell death, measured using the trypan blue dye exclusion assay, by the end of wound closure experiments. The minimum lethal concentration (MLC) for compound 94 under the conditions of the cell invasion assay was 50 μm. In the cell invasion assay, cells were at a lower density than in the wound closure assay, and compounds were added at the same time as the cells, rather than after attachment and growth.

The next data set relates to cell migration. The note with it: natural product comparator; read-out: IC50 (inhibition of cell migration); cited from earlier work.

Values after ≈ are worked out from the molar mass of the structure shown.

Consider `CCOc1cc2c(c3c1C(c1ccccc1)N(S(=O)(=O)c1ccc(C)cc1)C3)C(=O)C=CC2=O` (centres unmarked) [Compound 92], for which the “effect on wound closure or cytotoxicity in the screen” value was “inactive” in data set [1] (2 μm), “inhibit wound closure or were cytotoxic” in data set [1] (10 μm) and “inhibit wound closure or were cytotoxic” in data set [1] (50 μm). The IC50 in data set [1] (Homo sapiens, MDA-MB-231, 9 hours post-wounding, subtoxic concentrations, n=7-9 wounds from three independent experiments, read-out: IC50 (inhibition of wound closure)) is 14.8 µM. Also, the “MIC (minimum inhibitory concentration, wound closure)” value in data set [1] (lowest concentration tested with statistically significant inhibitory activity (P<0.05)) stood at 5 µM (≈ 2.37 µg/mL). For the same molecule, the “antimigratory activity in the wound closure assay” value in data set [1] (subtoxic concentrations) is reported as “exhibited subtoxic antimigratory activity”. Further, the “inhibition of cell growth” value with MDA-MB-231 cells [2] (concentrations that inhibit migration and invasion) was “did not inhibit cell growth”. The cytotoxicity result with MDA-MB-231 cells [2] (higher concentrations) was “become cytotoxic at higher concentrations over a very narrow range”. In the data set with MDA-MB-231 cells [3], the “activity against cell invasion” value was “inhibit cell migration and invasion at subtoxic concentrations”. In data set [4], the “MLC (minimum lethal concentration)” value is 50 µM (≈ 23.7 µg/mL).
With `CO[C@H]1/C=C/CC/C=C/C(=O)O[C@H]([C@H](C)C(=O)CCCC2CC(=O)NC(=O)C2)/C(C)=C\[C@@H](C)[C@@H]1O` [migrastatin], in the data set on cell migration, the IC50 was 29 µM.
